According to patent publication US20060110468A1, “Herbal formulations for arthritis” (priority 2004, published 2006):

Legend:
[1] = system: rat paw edema evoked by egg white; test: Egg white induced paw edema test in rats; format: in vivo; settings: 8 mg/kg
Experimental: (§1) The anti-inflammatory effects of above extracts of the present invention were investigated in acute inflammatory models induced by either carrageenan or egg white.
(§2) Rats received a subplantar injection of carrageenan (0.1 ml of a 1% suspension in 0.85% saline; Sigma Chemical Co., St Louis, Mo., USA) or egg white (0.1 ml of a 10% solution in 0.85% saline) in the left hind paw. The total volume injected was 0.1 ml.
(§3) Indomethacin was administered to animals in the positive control group.
(§4) The volume of paw edema (in ml) was measured in each animal using a plethysmometer (Plethysmometer 7150, Ugo Basile, Italy) to a precision of two decimal places. The measurements were made immediately before and 2, 4, 6, 24 h after the carrageenan injection or 1, 2, 3, and 4 h after the injection of egg white. The swelling rate of paw was the percentage difference in paw volume and calculated by the following equation: Swelling rate (%)=(A−B)×100/B, where A represents the paw volume at different time points after injection, and B represents the paw volume before injection.
(§5) Values are presented as mean±SD.

[2] = system: rat paw edema evoked by carrageenan; test: Carrageenan induced paw edema test in rats; format: in vivo; settings: 10 mg/kg
Experimental: as §1, §2, §3, §4, §5

[3] = system: writhing activity of mice induced by acetic acid; test: Acetic acid writhing test in mice; format: in vivo, ICR mice; settings: one hour after administration; for The number of writhing episodes: mice
Experimental: In the writhing test, acetic acid is injected into the intraperitoneal cavity of mice. This induces acute inflammatory pain characterized by a contraction wave of abdominal musculature through stretching of the hind limbs that is called writhing, and the number of writhing episodes is evaluated.
Male and female ICR mice weighing 18 g to 25 g were fasted for one day before the test. […] The animals were then placed in individual 101×15 cm Plexiglas observation chambers for a 10-min acclimatization period. Acetic acid, 0.8% in 0.85% saline was injected i.p. into each mouse the animals were then returned into their respective transparent chambers.
The animals were then observed for a specific period (15 or 20 mins) and the number of writhing episodes was counted. For scoring purpose, a writhe was indicated by a contraction wave of abdominal musculature with simultaneous stretching of at least one hind limb.
as §5

## C[C@@H]1C[C@H]2[C@@H]3CCC4=CC(=O)C=C[C@]4(C)[C@@]3(F)[C@@H](O)C[C@]2(C)[C@@]1(O)C(=O)CO [Dexamethasone]
[1]; 1 hr
  Swelling percentage of paw volume after stimulation (%) 1 hr: 26.66 ± 3.34 %
[1]; 2 hr
  Swelling percentage of paw volume after stimulation (%) 2 hr: 19.31 ± 5.83 %
[1]; 3 hr
  Swelling percentage of paw volume after stimulation (%) 3 hr: 9.12 ± 4.42 %
[1]; 4 hr
  Swelling percentage of paw volume after stimulation (%) 4 hr: 7.49 ± 4.08%

## COc1ccc2c(c1)c(CC(=O)O)c(C)n2C(=O)c1ccc(Cl)cc1 [Indomethacin]
[2]; positive control, not observed at 24 hrs after stimulation
  inhibition of swelling evoked by carrageenan (in words): inhibited the swelling within 7 hrs after drug administration
[2]; rat, 2 hour
  Percentage change in swelling after injecting carrageenan (%) 2 hour: 12.27 ± 4.61 %
[2]; rat, 2 hour (Table 13)
  Percentage change in swelling after injection of carrageenan (%) 2 hour: 12.27 ± 4.61 %
[2]; rat, 4 hour
  Percentage change in swelling after injecting carrageenan (%) 4 hour: 15.12 ± 7.85 %
[2]; rat, 4 hour (Table 13)
  Percentage change in swelling after injection of carrageenan (%) 4 hour: 15.12 ± 7.85 %
[2]; rat, 6 hour
  Percentage change in swelling after injecting carrageenan (%) 6 hour: 15.32 ± 7.84 %
[2]; rat, 6 hour (Table 13)
  Percentage change in swelling after injection of carrageenan (%) 6 hour: 15.32 ± 7.84 %
[2]; rat, 24 hour
  Percentage change in swelling after injecting carrageenan (%) 24 hour: 35.36 ± 14.65%
[2]; rat, 24 hour (Table 13)
  Percentage change in swelling after injection of carrageenan (%) 24 hour: 35.36 ± 14.65%

## COC1=C[C@@H]2[C@@H]3Cc4ccc(OC)c(O)c4[C@]2(CCN3C)CC1=O [Sinomenine]
[3]; 0.0375 g/kg
  The number of writhing episodes: 25 ± 9
[3]; tetrahydropalmatine 0.09 g/kg, sinomenine 0.0375 g/kg, capsule 12.7 g/kg and 25.50 g/kg
  inhibition to the writhing activity of mice induced by acetic acid (in words): significant compared to control group

## COc1cc2c(cc1OC)[C@@H]1Cc3ccc(OC)c(OC)c3CN1CC2 [Tetrahydropalmatine]
[3]; 0.090 g/kg
  The number of writhing episodes: 11 ± 6
